Patent US8569493B2 (Santen Pharmaceutical Co., Ltd., priority 2007, dated 2013)

Target: T1, Recombinant human GR (Homo sapiens, UniProt P04150)
T1 construct: purchased Invitrogen P2816
T1 sequence (P04150 1-777): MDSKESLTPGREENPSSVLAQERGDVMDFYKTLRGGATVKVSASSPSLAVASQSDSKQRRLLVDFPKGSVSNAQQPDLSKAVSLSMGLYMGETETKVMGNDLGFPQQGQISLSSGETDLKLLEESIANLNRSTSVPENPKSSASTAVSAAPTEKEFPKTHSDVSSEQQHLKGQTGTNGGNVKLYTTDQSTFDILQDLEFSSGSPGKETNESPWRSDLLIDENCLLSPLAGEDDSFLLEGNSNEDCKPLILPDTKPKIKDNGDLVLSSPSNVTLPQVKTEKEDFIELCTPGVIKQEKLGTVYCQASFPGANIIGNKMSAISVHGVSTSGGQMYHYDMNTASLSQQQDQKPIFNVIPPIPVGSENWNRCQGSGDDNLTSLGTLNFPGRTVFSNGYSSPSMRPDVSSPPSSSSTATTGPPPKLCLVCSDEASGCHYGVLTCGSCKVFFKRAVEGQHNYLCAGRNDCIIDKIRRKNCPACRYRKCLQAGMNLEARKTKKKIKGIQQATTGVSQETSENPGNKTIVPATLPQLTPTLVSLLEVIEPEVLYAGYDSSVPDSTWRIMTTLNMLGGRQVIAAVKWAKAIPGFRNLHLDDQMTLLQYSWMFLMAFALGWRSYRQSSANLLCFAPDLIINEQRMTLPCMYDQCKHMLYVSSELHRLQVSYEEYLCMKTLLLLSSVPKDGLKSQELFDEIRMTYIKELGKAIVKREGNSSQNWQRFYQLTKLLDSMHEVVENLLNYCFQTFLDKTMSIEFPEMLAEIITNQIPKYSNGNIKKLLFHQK
Assay: GR competitor assay by fluorescence polarization (binding activity to glucocorticoid receptor)
Details: 20 μM test compound solution, 10 μL per well plus 5 μL 4×GS1 and 5 μL 4×GR; 2 to 4 hours at room temperature; ratio of 100% or more is indicated by 100%
Experimental: 1. Evaluation Test for Binding Activity to Glucocorticoid Receptor (hereinafter referred to as “GR”)
In order to evaluate a binding activity to GR, a receptor competitor assay was carried out by a fluorescence polarization method. In the assay, a GR competitor assay kit (manufactured by Invitrogen, cat No. P2816) was used, and a procedure was carried out according to the protocol attached to the kit. Hereinafter, the specific method will be described.
(Preparation of Reagents)
GR screening buffer: A buffer containing 10 mM potassium phosphate (pH 7.4), 20 mM sodium molybdate (Na2MoO4), 0.1 mM ethylene diamine tetraacetic acid (EDTA), 5 mM dithiothreitol (DTT), 0.1 mM stabilizing peptide and 2% dimethylsulfoxide was prepared.
4×GS1 solution: Fluormone™ GS1, which is a fluorescent glucocorticoid ligand, was diluted with GR screening buffer, whereby a 4 nM solution was prepared.
4×GR solution: Recombinant human GR was diluted with GR screening buffer, whereby a 16 nM solution was prepared.
(Preparation of Test Compound Solution)
After a test compound was dissolved in dimethylsulfoxide, it was diluted with GR screening buffer, whereby a 20 μM test compound solution was prepared.
(Test Method and Measurement Method)
1) The test compound solution was added in an amount of 10 μL into each well of a 384-well plate, and then, 4×GS1 solution and 4×GR solution were added in an amount of 5 μL into each well, respectively.
2) The plate was incubated in a dark place at room temperature for 2 to 4 hours.
3) By using a multimode plate reader, Analyst™ HT (manufactured by LJL Biosystems), fluorescence polarization of each well was measured. As the blank, a well containing GR screening buffer in place of the test compound and 4×GS1 solution was used.
4) The same procedure as that in the above 1) to 3) was carried out except that GR screening buffer was used in place of the test compound solution, and the obtained result was taken as the negative control.
5) The same procedure as that in the above 1) to 3) was carried out except that 2 mM dexamethasone was used in place of the test compound solution, and the obtained result was taken as the positive control.
(Calculation Equation of GR Binding Ratio)
A GR binding ratio (%) was calculated from the following equation. GR binding ratio(%)=100×[1−(fluorescence polarization of test compound solution−fluorescence polarization of positive control solution)/(fluorescence polarization of negative control solution−fluorescence polarization of positive control solution)] (Test Results and Discussion)

Row | inhibition at 10 µM [%] | SMILES
1 | 100 | COc1ccc([N+](=O)[O-])cc1OCc1c(-c2ccc(OS(=O)(=O)CC(C)C)cc2OC)ccc2c1N(C)C(=O)C(C)(C)N2 [Compound 1-40]
2 | 100 | COc1cc(OS(=O)(=O)CCCN(C)CCN(C)C)ccc1-c1ccc2c(c1COc1cc(F)ccc1C)N(C)C(=O)C(C)(C)N2 [Compound 3-5, 7-[4-[3-[N-(2-Dimethylaminoethyl)-N-methylamino]propylsulfonyloxy]-2-methoxyphenyl]-8-(5-fluoro-2-methylphenoxymethyl)-1,3,3-trimethyl-3,4-dihydro-1H-quinoxalin-2-one]
3 | 100 | CCCS(=O)(=O)Oc1ccc(-c2ccc3c(c2CNc2cc(F)ccc2C)N(C)C(=O)C(C)(C)N3)c(OC)c1 [Compound 1-58]
4 | 94 | COc1cc(OS(=O)(=O)C2CC2)ccc1-c1ccc2c(c1COc1cc([N+](=O)[O-])ccc1C)N(C)C(=O)C(C)(C)N2 [Compound 1-45]
5 | 92 | COc1cc(OS(=O)(=O)C2CCCCC2)ccc1-c1ccc2c(c1COc1cc(F)ccc1C)N(C)C(=O)C(C)(C)N2 [Compound 1-30]
6 | 71 | COc1cc(OS(=O)(=O)CCCN2CCCCC2)ccc1-c1ccc2c(c1COc1cc(F)ccc1C)N(C)C(=O)C(C)(C)N2 [Compound 3-4]
7 | 94 | COc1cc(OS(=O)(=O)CCCNCc2ccccc2)ccc1-c1ccc2c(c1COc1cc(F)ccc1C)N(C)C(=O)C(C)(C)N2 [Compound 3-1, 7-[4-(3-Benzylaminopropylsulfonyloxy)-2-methoxyphenyl]-8-(5-fluoro-2-methylphenoxymethyl)-1,3,3-trimethyl-3,4-dihydro-1H-quinoxalin-2-one]
8 | 94 | COc1cc(OS(=O)(=O)C2CCCC2)ccc1-c1ccc2c(c1COC(=O)c1ccc(C)s1)N(C)C(=O)C(C)(C)N2 [Compound 1-37]
9 | 95 | COc1cc(OS(=O)(=O)C2CCCC2)ccc1-c1ccc2c(c1COc1cc(F)ccc1C)N(C)C(=O)C(C)(C)N2 [Compound 1-29]
10 | 100 | COc1cc(OS(=O)(=O)CC(C)C)ccc1-c1ccc2c(c1COC(=O)c1ccc(C)s1)N(C)C(=O)C(C)(C)N2 [Compound 1-34]
11 | 96 | COc1cc(OS(=O)(=O)C2CC2)ccc1-c1ccc2c(c1COC(=O)c1ccc(C)s1)N(C)C(=O)C(C)(C)N2 [Compound 1-32]
12 | 91 | COc1ccccc1NCc1c(-c2ccc(OS(=O)(=O)CCC(F)(F)F)cc2OC)ccc2c1N(C)C(=O)C(C)(C)N2 [Compound 2-4, 8-(2-Methoxyphenylaminomethyl)-7-[2-methoxy-4-(3,3,3-trifluoropropylsulfonyloxy)phenyl]-1,3,3-trimethyl-3,4-dihydro-1H-quinoxalin-2-one]
13 | 93 | CCCS(=O)(=O)Oc1ccc(-c2ccc3c(c2COc2cc([N+](=O)[O-])ccc2OC)N(C)C(=O)C(C)(C)N3)c(OC)c1 [Compound 1-44]
14 | 100 | COc1cc(OS(=O)(=O)CCCN2CCOCC2)ccc1-c1ccc2c(c1COc1cc(F)ccc1C)N(C)C(=O)C(C)(C)N2 [Compound 3-3, 8-(5-Fluoro-2-methylphenoxymethyl)-7-[2-methoxy-4-[3-(morpholin-4-yl)propylsulfonyloxy]phenyl]-1,3,3-trimethyl-3,4-dihydro-1H-quinoxalin-2-one]
15 | 89 | COc1ccccc1NCc1c(-c2ccc(OS(=O)(=O)c3ccccc3)cc2OC)ccc2c1N(C)C(=O)C(C)(C)N2 [Compound 2-2, 8-(2-Methoxyphenylaminomethyl)-7-(2-methoxy-4-phenylsulfonyloxyphenyl)-1,3,3-trimethyl-3,4-dihydro-1H-quinoxalin-2-one]
16 | 95 | COc1cc(OS(=O)(=O)CCC(F)(F)F)ccc1-c1ccc2c(c1COC(=O)c1ccc(C)s1)N(C)C(=O)C(C)(C)N2 [Compound 1-33]
17 | 97 | COc1ccccc1NCc1c(-c2ccc(OS(=O)(=O)CC(C)C)cc2OC)ccc2c1N(C)C(=O)C(C)(C)N2 [Compound 2-5, 7-(4-Isobutylsulfonyloxy-2-methoxyphenyl)-8-(2-methoxyphenylaminomethyl)-1,3,3-trimethyl-3,4-dihydro-1H-quinoxalin-2-one]

Second part, the molecule before the results:

Row | SMILES | inhibition at 10 µM [%]
18 | COc1cc(OS(=O)(=O)c2cccc(Cl)c2)ccc1-c1ccc2c(c1COc1cc(F)ccc1C)N(C)C(=O)C(C)(C)N2 [Compound 1-16] | 68
19 | COc1cc(NS(C)(=O)=O)ccc1-c1ccc2c(c1COc1cc(F)ccc1C)N(C)C(=O)C(C)(C)N2 [Compound 1-25] | 92
20 | COc1cc(OS(=O)(=O)Cc2ccccc2C)ccc1-c1ccc2c(c1COc1cc(F)ccc1C)N(C)C(=O)C(C)(C)N2 [Compound 1-28] | 91
21 | COc1cc(OS(=O)(=O)c2ccccc2C)ccc1-c1ccc2c(c1COc1cc(F)ccc1C)N(C)C(=O)C(C)(C)N2 [Compound 1-11] | 83
22 | COc1cc(OS(=O)(=O)c2ccccc2)ccc1-c1ccc2c(c1COC(=O)c1ccc(C)s1)N(C)C(=O)C(C)(C)N2 [Compound 1-7] | 86
23 | COc1cc(OS(C)(=O)=O)ccc1-c1ccc2c(c1COc1cc(F)ccc1C)N(C)C(=O)C(C)(C)N2 [Compound 1-1, 8-(5-Fluoro-2-methylphenoxymethyl)-7-(2-methoxy-4-methylsulfonyloxyphenyl)-1,3,3-trimethyl-3,4-dihydro-1H-quinoxalin-2-one] | 91
24 | COc1cc(OS(=O)(=O)C(C)C)ccc1-c1ccc2c(c1COc1cc(F)ccc1C)N(C)C(=O)C(C)(C)N2 [Compound 1-14] | 100
25 | COc1cc(OS(=O)(=O)Cc2cccc(Cl)c2)ccc1-c1ccc2c(c1COc1cc(F)ccc1C)N(C)C(=O)C(C)(C)N2 [Compound 1-18] | 88
26 | CCCS(=O)(=O)Oc1ccc(-c2ccc3c(c2COc2cc(F)ccc2C)N(C)C(=O)C(C)(C)N3)c(OC)c1 [Compound 1-4] | 99
27 | COc1cc(OS(C)(=O)=O)ccc1-c1ccc2c(c1COC(=O)c1ccc(C)s1)N(C)C(=O)C(C)(C)N2 [Compound 1-6] | 100
28 | COc1cc(OS(=O)(=O)CCC(F)(F)F)ccc1-c1ccc2c(c1COc1cc(F)ccc1C)N(C)C(=O)C(C)(C)N2 [Compound 1-22] | 91
29 | COc1cc(OS(=O)(=O)C(F)(F)F)ccc1-c1ccc2c(c1COc1cc(F)ccc1C)N(C)C(=O)C(C)(C)N2 [Compound 1-3] | 99
30 | COc1cc(OS(=O)(=O)c2ccccc2)ccc1-c1ccc2c(c1COc1cc(F)ccc1C)N(C)C(=O)C(C)(C)N2 [Compound 1-2] | 85
31 | COc1cc(OS(=O)(=O)C2CC2)ccc1-c1ccc2c(c1COc1cc(F)ccc1C)N(C)C(=O)C(C)(C)N2 [Compound 1-23] | 94
32 | COc1cc(OS(=O)(=O)CC(C)C)ccc1-c1ccc2c(c1COc1cc(F)ccc1C)N(C)C(=O)C(C)(C)N2 [Compound 1-21] | 92
33 | COc1cc(OS(=O)(=O)c2ccc(Cl)cc2)ccc1-c1ccc2c(c1COc1cc(F)ccc1C)N(C)C(=O)C(C)(C)N2 [Compound 1-17] | 65
34 | COc1cc(OS(=O)(=O)Cc2ccc(C)cc2)ccc1-c1ccc2c(c1COc1cc(F)ccc1C)N(C)C(=O)C(C)(C)N2 [Compound 1-19] | 91
35 | COc1cc(OS(=O)(=O)c2ccco2)ccc1-c1ccc2c(c1COc1cc(F)ccc1C)N(C)C(=O)C(C)(C)N2 [Compound 1-5] | 95
